In patent publication US20050064011A1, “Implantable or insertable medical devices containing phenolic compound for inhibition of restenosis” (priority 2003, published 2005):

System: coronary arteries of juvenile domestic swine
Assay: Stent implantation in porcine coronary artery model, morphometric analysis after 28 days
Type: in vivo
Conditions: BHT in copolymer stent coating
Source text: The following are placed in the coronary arteries of juvenile domestic swine: (a) oversized bare metal stents, (b) EtO-sterilized, copolymer-coated, BHT-free stents, (c) electron-beam-sterilized, copolymer-coated, BHT-free stents, (d) electron-beam-sterilized, stents with coating containing 5% BHT and 95% copolymer, and (e) electron beam-sterilized, stents with coating containing 10% BHT and 90% copolymer. After 28 days, the stents are harvested from the animals and an examination of morphometric % restenosis and neointimal thickening area was conducted. Morphometric analysis is performed on one specimen from each stented segment in a blinded manner. Morphometry is completed using a PC based digital planimetry system. Morphometric % restenosis is determined by neointimal area÷internal elastic lamina (IEL) area×100; while neointimal area is determined by internal elastic lamina (IEL)−injured luminal area. The results are presented in the table to follow: Statistical methods are as follows: Data are presented as mean±S.D. Comparisons between the control (bare stent) and treated stents were made using unpaired t-test. Improvement in morphometic % restenosis and neointimal area, relative to bare stents, was […] considered to be statistically significant for values of p≦0.05.

Cc1cc(C(C)(C)C)c(O)c(C(C)(C)C)c1 [BHT, butylated hydroxytoluene]
stent biocompatibility: enhances stent biocompatibility
